# Source: patent US20200179415A1, “HIGHLY ACTIVE DRUG COMBINATION FOR TREATMENT OF HEPATITIS C VIRUS” (Atea Pharmaceuticals, Inc., priority 2018, published 2020)
# Structures can show the parent of a compound that is named as a salt.
# Columns and labels:
# HCV GT3 = settings: non-cirrhotic patients, 600 mg QD, seven days; cited from earlier work
# HCV GT1 = settings: non-cirrhotic patients, 600 mg QD, seven days; cited from earlier work
# HCV GT1 or HCV GT3 = settings: CPA cirrhosis, QD for seven days; cited from earlier work
# [1] = tested on: GT1b_3a-NS5B chimeric HCV replicon; experiment: microbe, parasite or virus in culture; assay type: cell-based; settings: Hepatitis C virus, Huh-7, 72 h, read-out: Individual EC50
# Procedure: (§1) Huh7 cells were maintained in DMEM supplemented with 10% FBS, 1% NEAA, 1% L-Glutamine and 1% Penicillin-Streptomycin. The stable HCV GT1a and 1b replicon cells were generated by transfection of Huh7 cells with in vitro transcribed HCV replicon RNA transcripts from replicon DNA constructs and were selected with 250 μg/ml of G418. The GT1b/3a NS5B chimeric replicons were constructed with the GT1b replicon as a backbone. GT1b/3a NS5B replicon RNAs were in vitro transcribed using the replicon plasmid DNAs and used to transiently transfect Huh7 cells by electroporation.
# (§2) The final concentration of DMSO in the cell culture medium was 0.5%. Compounds were individually tested for their inhibitory activity in stably-transfected GT1a and GT1b replicons and in transiently-transfected GT1b/3a NS5B chimeric replicons in duplicate at 9 concentrations with a series of 4-fold dilutions starting at 10,000 nM. Replicon cells were seeded (8,000 cells/well for GT1a and 1b; 10,000 cells/well for GT1b/3a NS5B) in 96-well plates containing serially diluted compounds and cultured at 37° C. and 5% CO2 for 3 days. CellTiter-Fluor was used to detect the fluorescence signal and the raw data (RFU) was used for calculating cell viability using the equation below: […]
# (§3) where CPD is a signal from a well containing a test compound, ZPE is the average of signals from DMSO control wells and HPE is the average of signals from medium control wells.
# (§4) The data were analyzed using CompuSyn software (ComboSyn, Inc., Paramus, N.J.) to obtain the concentrations of the individual compounds required to achieve 50% cytotoxicity (CC50) and 50% (EC50) and 90% (EC90) antiviral efficacy. […]
# (§5) In Example 6, Huh7 cells were transiently transfected with replicon RNA by electroporation and seeded at a density of 10,000 cells/well in 96-well plates. HCV GT1a and GT1b replicons stable cells were seeded at a density of 8,000 cells/well in 96-well plates. […]
# HCV GT1b replicon = experiment: microbe, parasite or virus in culture; assay type: cell-based; settings: Hepatitis C virus, Huh-7, 72 h, stable replicon in Huh7 cells, 3 days, read-out: Individual EC50
# Procedure: as §1, §2, §3, §4, §5
# HCV GT1a replicon = experiment: microbe, parasite or virus in culture; assay type: cell-based; settings: Hepatitis C virus, Huh-7, 72 h, stable replicon in Huh7 cells, 3 days, read-out: Individual EC50
# Procedure: as §1, §2, §3, §4, §5
# [2] = Hygroscopicity in climatic cabinet; assay type: physicochemical
# Procedure: Compound 2-A was characterized by ^1HNMR, ^13CNMR, FI-IR, and mass spectrum in addition to XRPD (FIG. 1A) and differential scanning calorimetry (DSC) (FIG. 1B). The hygroscopicity was measured by placing a sample in a climatic cabinet set at 25±1° C./80±2% RH for 24 hours. The water content was increased from 3.3% to 9.4%.
# [3] = Stability of Compound 2-A in stability chambers; assay type: physicochemical
# Procedure: The stability of Compound 2-A was measured under three different conditions: 1) open container; 2) PE/ALU bag where the PE bag is closed with clips and the ALU bag is sealed by thermos-sealing; and 3) PE/ALU bag with desiccant where the PE bag is closed with plastic clip, the ALU bag is sealed by the thermos-sealing, and 10 g of silica gel is placed between the bags. The open container conditions were conducted with two different batches of Compound 2-A. The results of the stability studies are shown in Table 5A, Table 5B, Table 6, and Table 7.
# [4] = 25° C./60% RH and 40° C./75% RH
# [5] = Batch No. 1, open container, 25° C./60% RH, 7 days
# [6] = Batch No. 1, open container, 25° C./60% RH, 14 days
# [7] = Batch No. 1, open container, 25° C./60% RH, 28 days
# [8] = Batch No. 1, open container, 30° C./65% RH, 7 days
# [9] = Batch No. 1, open container, 30° C./65% RH, 14 days
# [10] = Batch No. 1, open container, 30° C./65% RH, 28 days
# [11] = Batch No. 1, open container, 40° C./75% RH, 7 days
# [12] = Batch No. 1, open container, 40° C./75% RH, 14 days
# [13] = Batch No. 1, open container, 40° C./75% RH, 28 days
# [14] = Batch No. 1, open container, Initial
# [15] = Batch No. 2, PE/ALU bag, 25° C./60% RH, 7 days
# [16] = Batch No. 2, PE/ALU bag, 25° C./60% RH, 16 days
# [17] = Batch No. 2, PE/ALU bag, 40° C./75% RH, 7 days
# [18] = Batch No. 2, PE/ALU bag, 40° C./75% RH, 16 days
# [19] = Batch No. 2, PE/ALU bag, Initial
# [20] = Batch No. 2, PE/ALU with desiccant, 25° C./60% RH, 7 days
# [21] = Batch No. 2, PE/ALU with desiccant, 25° C./60% RH, 16 days
# [22] = Batch No. 2, PE/ALU with desiccant, 40° C./75% RH, 7 days
# [23] = Batch No. 2, PE/ALU with desiccant, 40° C./75% RH, 16 days
# [24] = Batch No. 2, PE/ALU with desiccant, Initial
# [25] = Batch No. 2, open container, 25° C./60% RH, 7 days
# [26] = Batch No. 2, open container, 25° C./60% RH, 16 days
# [27] = Batch No. 2, open container, 30° C./65% RH, 7 days
# [28] = Batch No. 2, open container, 30° C./65% RH, 16 days
# [29] = Batch No. 2, open container, 40° C./75% RH, 7 days
# [30] = Batch No. 2, open container, 40° C./75% RH, 16 days
# [31] = Batch No. 2, open container, Initial
smiles,measurement,setting,value
"CNc1nc(N)nc2c1ncn2[C@@H]1O[C@H](CO[P@@](=O)(N[C@@H](C)C(=O)OC(C)C)Oc2ccccc2)[C@@H](O)[C@@]1(C)F [Compound 1-A, hemi-sulfate salt of isopropyl((S)-(((2R,3R,4R,5R)-5-(2-amino-6-(methylamino)-9H-purin-9-yl)-4-fluoro-3-hydroxy-4-methyltetrahydrofuran-2-yl)methoxy)(phenoxy)phosphoryl)-L-alaninate]",mean maximum HCV RNA reduction,HCV GT3,4.6 log10 IU/mL
same,mean maximum HCV RNA reduction,HCV GT1,4.4 log10 IU/mL
same,mean maximum HCV RNA reduction,HCV GT1 or HCV GT3,4.4 log10 IU/mL
same,EC50,[1],1.68 nM
same,EC50,HCV GT1b replicon,2.69 nM
same,EC50,HCV GT1a replicon,2.83 nM
"COC(=O)N[C@H](C(=O)N1CCC[C@H]1c1nc(-c2ccc(-c3ccc(-c4c[nH]c([C@@H]5CCCN5C(=O)[C@@H](NC(=O)OC)C(C)C)n4)c4c3OCO4)cc2)c[nH]1)C(C)C [Compound 2, methyl N-[(2S)-1-[(2S)-2-[5-[4-[7-[2-[(2S)-1-[(2 S)-2-(methoxycarbonylamino)-3-methylbutanoyl]pyrrolidin-2-yl]-1H-imidazol-5-yl]-1,3-benzodioxol-4-yl]phenyl]-1H-imidazol-2-yl]pyrrolidin-1-yl]-3-methyl-1-oxobutan-2-yl]carbamate]",EC50,[1],0.0029 nM
same,EC50,HCV GT1b replicon,0.014 nM
same,EC50,HCV GT1a replicon,0.03 nM
COC(=O)N[C@H](C(=O)N1CCC[C@H]1c1nc(-c2ccc(-c3ccc(-c4c[nH]c([C@@H]5CCCN5C(=O)[C@@H](NC(=O)OC)C(C)C)n4)c4c3OCO4)cc2)c[nH]1)C(C)C [Compound 2-A],water content,[2]; after 24 hours at 25±1° C./80±2% RH,9.4%
same,water content,[2]; before storage,3.3%
same,purity change,[3]; [4],not changed
same,water content change,[3]; [4],slowly increased
same,Appearance,[3]; [5],Pale-yellow solid
same,Purity (HPLC),[3]; [5],98.45%
same,Water (KF),[3]; [5],6.14%
same,XRPD,[3]; [5],Consistent
same,Appearance,[3]; [6],Pale-yellow solid
same,Purity (HPLC),[3]; [6],98.61%
same,Water (KF),[3]; [6],6.28%
same,Appearance,[3]; [7],Pale-yellow solid
same,Purity (HPLC),[3]; [7],98.58%
same,Water (KF),[3]; [7],5.95%
same,Appearance,[3]; [8],Pale-yellow solid
same,Purity (HPLC),[3]; [8],98.40%
same,Water (KF),[3]; [8],6.73%
same,XRPD,[3]; [8],Consistent
same,Appearance,[3]; [9],Pale-yellow solid
same,Purity (HPLC),[3]; [9],98.47%
same,Water (KF),[3]; [9],6.80%
same,Appearance,[3]; [10],Pale-yellow solid
same,Purity (HPLC),[3]; [10],98.59%
same,Water (KF),[3]; [10],6.49%
same,Appearance,[3]; [11],Pale-yellow solid
same,Purity (HPLC),[3]; [11],98.45%
same,Water (KF),[3]; [11],7.13%
same,XRPD,[3]; [11],Consistent
same,Appearance,[3]; [12],Pale-yellow solid
same,Purity (HPLC),[3]; [12],98.51%
same,Water (KF),[3]; [12],7.67%
same,Appearance,[3]; [13],Pale-yellow solid
same,Purity (HPLC),[3]; [13],98.53%
same,Water (KF),[3]; [13],6.96%
same,Appearance,[3]; [14],Pale-yellow solid
same,Purity (HPLC),[3]; [14],98.39%
same,Water (KF),[3]; [14],3.11%
same,XRPD,[3]; [14],Crystalline
same,Appearance,[3]; [15],White powder
same,Purity (HPLC),[3]; [15],99.36%
same,Water (KF),[3]; [15],5.18%
same,Appearance,[3]; [16],White powder
same,Purity (HPLC),[3]; [16],99.41%
same,Water (KF),[3]; [16],5.56%
same,Appearance,[3]; [17],White powder
same,Purity (HPLC),[3]; [17],99.37%
same,Water (KF),[3]; [17],5.42%
same,Appearance,[3]; [18],White powder
same,Purity (HPLC),[3]; [18],99.42%
same,Water (KF),[3]; [18],5.91%
same,Appearance,[3]; [19],White powder
same,Purity (HPLC),[3]; [19],99.39%
same,Water (KF),[3]; [19],4.48%
same,Appearance,[3]; [20],White powder
same,Purity (HPLC),[3]; [20],99.38%
same,Water (KF),[3]; [20],5.46%
same,Appearance,[3]; [21],White powder
same,Purity (HPLC),[3]; [21],99.41%
same,Water (KF),[3]; [21],5.83%
same,Appearance,[3]; [22],White powder
same,Purity (HPLC),[3]; [22],99.37%
same,Water (KF),[3]; [22],5.51%
same,Appearance,[3]; [23],White powder
same,Purity (HPLC),[3]; [23],99.42%
same,Water (KF),[3]; [23],6.90%
same,Appearance,[3]; [24],White powder
same,Purity (HPLC),[3]; [24],99.39%
same,Water (KF),[3]; [24],4.48%
same,Appearance,[3]; [25],White powder
same,Purity (HPLC),[3]; [25],99.37%
same,Water (KF),[3]; [25],6.01%
same,Appearance,[3]; [26],White powder
same,Purity (HPLC),[3]; [26],99.41%
same,Water (KF),[3]; [26],7.69%
same,Appearance,[3]; [27],White powder
same,Purity (HPLC),[3]; [27],99.38%
same,Water (KF),[3]; [27],7.50%
same,Appearance,[3]; [28],White powder
same,Purity (HPLC),[3]; [28],99.41%
same,Water (KF),[3]; [28],6.98%
same,Appearance,[3]; [29],White powder
same,Purity (HPLC),[3]; [29],99.38%
same,Water (KF),[3]; [29],7.96%
same,Appearance,[3]; [30],White powder
same,Purity (HPLC),[3]; [30],99.42%
same,Water (KF),[3]; [30],7.03%
same,Appearance,[3]; [31],White powder
same,Purity (HPLC),[3]; [31],99.39%
same,Water (KF),[3]; [31],4.48%
